# Laboratory results: patent US20220151227A1, “CARNIVOROUS WASP CONTROL AGENT” (EARTH CORPORATION, priority 2019, published 2022)
# System: Vespa ducalis
# Assay: Control Test 1: aerosol sprayed on one test wasp in metal mesh cage, control time
# Format: in vivo
# Conditions: 2 g aerosol sprayed 1 second from approx. 30 cm, observed up to 180 seconds
# Text: (§1) Ten grams of ethyl lactate, which is an active ingredient under the present invention, was put in an aerosol can as a liquid concentrate, and then a valve part was installed on the can, after which dimethyl ether was filled through the valve part as a propellant until the weight ratio of the liquid concentrate and the propellant became 1:2, and then a spray button was installed, to obtain 30 g of aerosol test sample in Example 1.
# (§2) In Examples 2 to 28 and Comparative Examples 1 to 6, the liquid concentrates shown in Table 1 below were used to obtain 30 g of respective test samples in the same manner as in Example 1.
# (§3) After spraying, the time it took for the test wasp to stop behaving normally and begin grooming abnormally and showing agitated behaviors (flapping of wings), and eventually drop to the bottom of the metal gauge, was measured as the control time (in seconds). In Table 1, “IPA” stands for isopropanol, while “%” refers to % by weight.
# (§4) It should be noted that “turpentine oil” in Examples 2 and 3 is a plant-based essential oil containing 85% by weight or more of α-pinene which is an active ingredient under the present invention, while Comparative Example 5 contains 1% by weight of isopropyl myristate as a dissolving aid.
row,Compound,Control time
1,"CC(C)[C@@H]1CC[C@@H](C)CC1=O [Example 5, Menthone]",<1 s

# System: Polistes jokahamae
# Assay: as above
# Format: in vivo
# Conditions: 2 g aerosol sprayed 1 second from approx. 30 cm, observed up to 180 seconds
# Text: as §1, §2, §3, §4
row,Compound,Control time
1,"CC(C)O [compound 6, IPA, reference compound]",>180 s
2,"CC(C)[C@@H]1CC[C@@H](C)CC1=O [Example 4, Menthone]",<1 s
3,"C=C(C)C1CC=C(C)C(=O)C1 (stereo not drawn) [Example 23, Carvone]",<1 s
4,"CC1CCC(C(C)C)C(O)C1 (stereo not drawn) [Example 21, Menthol]",<1 s
5,"CCOC(=O)C(C)O (stereo not drawn) [Example 1, Ethyl lactate]",<1 s
6,"COC(=O)C(C)O (stereo not drawn) [Example 26, Methyl lactate]",<1 s
7,"COC(=O)Cc1ccccc1 [Example 28, Methyl phenyl acetate]",<1 s
8,"CCCCOC(=O)C(C)O (stereo not drawn) [Example 27, n-butyl lactate]",<1 s

# System: Vespa simillima
# Assay: as above
# Format: in vivo
# Conditions: 2 g aerosol sprayed 1 second from approx. 30 cm, observed up to 180 seconds
# Text: as §1, §2, §3, §4
row,Compound,Control time
1,"CC(=O)OC1CC(C)CCC1C(C)C (stereo not drawn) [compound 2, Menthyl acetate]",>180 s

# System: Polistes rothneyi
# Assay: as above
# Format: in vivo
# Conditions: 2 g aerosol sprayed 1 second from approx. 30 cm, observed up to 180 seconds
# Text: as §1, §2, §3, §4
row,Compound,Control time
1,"O=C(Cc1ccccc1)OCc1ccccc1 [Example 14, Benzyl phenyl acetate]",<1 s
2,α-turpentine [Example 9],<1 s
3,"CC(C)=CCCC(C)=CCCC(C)=CCO [Example 8, Farnesol]",<1 s
4,"CC12CCC(CC1)C(C)(C)O2 [Example 20, Cineol]",<1 s
5,"CC(C)=CCCC(C)=CC=O [Example 11, Citral]",<1 s
6,"COC(=O)c1ccccc1 [Example 6, Methyl benzoate]",<1 s
7,"CC(C)=C1CC[C@@H](C)CC1=O [Example 10, Pulegone]",<1 s
8,"CC(C)[C@]12CC(=O)[C@H](C)[C@H]1C2 [Example 12, Thujone]",<1 s
9,"CCCCCC(O)CC (stereo not drawn) [Example 13, 3-octanol]",<1 s
10,"CCOC(=O)c1ccccc1 [Example 7, Ethyl benzoate]",<1 s

# System: Vespa mandarinia
# Assay: as above
# Format: in vivo
# Conditions: 2 g aerosol sprayed 1 second from approx. 30 cm, observed up to 180 seconds
# Text: as §1, §2, §3, §4
row,Compound,Control time
1,"C=CC(C)(O)CCC=C(C)C (stereo not drawn) [compound 3, Linalool]",>180 s
